Literature values as cited in patent publication US5179093A, “Quinoline-diones” (Schering Corporation, priority 1991, dated 1993).

Key:
HSV-1 = conditions: U.S. Pat. No. 4,757,088; cited from earlier work
HSV = conditions: according to Haines et al.; cited from earlier work
HSV-2 = conditions: U.S. Pat. No. 4,757,088; cited from earlier work
herpes virus = conditions: U.S. Pat. No. 4,757,088; cited from earlier work

## CCN(CC)CC(=O)Nc1c(C)cccc1C [lidocaine, 2-(diethylamino)-N-(2,6-dimethylphenyl)acetamide]
HSV-1
  antiviral activity in cell culture against HSV-1: antiviral agent in cell culture against HSV-1 and HSV-2
HSV
  treatment of HSV oral and genital lesions in humans: particularly effective
HSV-2
  antiviral activity in cell culture against HSV-2: antiviral agent in cell culture against HSV-1 and HSV-2
Herpes virus
  ability to treat herpes virus infections of mammals: able to treat herpes virus infections of mammals
